{"source": "ChEMBL document CHEMBL6092156", "about": "“Design and development of a series of 4-(piperazin-1-yl)pyrimidines as irreversible menin inhibitors” (Eur J Med Chem, 2024)", "key": {"[1]": {"molecular_target": "Menin/Histone-lysine N-methyltransferase MLL (Homo sapiens, UniProt O00255)", "sequence (O00255 whole entry)": "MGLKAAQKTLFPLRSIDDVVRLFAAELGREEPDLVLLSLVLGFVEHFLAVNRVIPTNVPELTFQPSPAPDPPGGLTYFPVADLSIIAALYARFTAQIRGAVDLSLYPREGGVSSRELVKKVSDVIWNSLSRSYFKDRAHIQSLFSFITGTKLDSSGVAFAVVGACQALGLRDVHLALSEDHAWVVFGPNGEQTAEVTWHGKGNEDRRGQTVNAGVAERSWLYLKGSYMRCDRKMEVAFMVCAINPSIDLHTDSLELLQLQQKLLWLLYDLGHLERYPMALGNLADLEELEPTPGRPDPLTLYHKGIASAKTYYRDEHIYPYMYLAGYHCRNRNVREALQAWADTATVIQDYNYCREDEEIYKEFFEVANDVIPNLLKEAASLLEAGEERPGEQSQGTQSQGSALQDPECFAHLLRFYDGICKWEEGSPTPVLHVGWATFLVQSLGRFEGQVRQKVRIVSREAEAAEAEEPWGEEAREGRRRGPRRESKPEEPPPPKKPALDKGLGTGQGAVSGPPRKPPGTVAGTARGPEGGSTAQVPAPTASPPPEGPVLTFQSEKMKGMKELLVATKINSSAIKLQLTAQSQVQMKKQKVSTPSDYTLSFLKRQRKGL", "sequence (Q03164 1-2718 partner limits assumed)": "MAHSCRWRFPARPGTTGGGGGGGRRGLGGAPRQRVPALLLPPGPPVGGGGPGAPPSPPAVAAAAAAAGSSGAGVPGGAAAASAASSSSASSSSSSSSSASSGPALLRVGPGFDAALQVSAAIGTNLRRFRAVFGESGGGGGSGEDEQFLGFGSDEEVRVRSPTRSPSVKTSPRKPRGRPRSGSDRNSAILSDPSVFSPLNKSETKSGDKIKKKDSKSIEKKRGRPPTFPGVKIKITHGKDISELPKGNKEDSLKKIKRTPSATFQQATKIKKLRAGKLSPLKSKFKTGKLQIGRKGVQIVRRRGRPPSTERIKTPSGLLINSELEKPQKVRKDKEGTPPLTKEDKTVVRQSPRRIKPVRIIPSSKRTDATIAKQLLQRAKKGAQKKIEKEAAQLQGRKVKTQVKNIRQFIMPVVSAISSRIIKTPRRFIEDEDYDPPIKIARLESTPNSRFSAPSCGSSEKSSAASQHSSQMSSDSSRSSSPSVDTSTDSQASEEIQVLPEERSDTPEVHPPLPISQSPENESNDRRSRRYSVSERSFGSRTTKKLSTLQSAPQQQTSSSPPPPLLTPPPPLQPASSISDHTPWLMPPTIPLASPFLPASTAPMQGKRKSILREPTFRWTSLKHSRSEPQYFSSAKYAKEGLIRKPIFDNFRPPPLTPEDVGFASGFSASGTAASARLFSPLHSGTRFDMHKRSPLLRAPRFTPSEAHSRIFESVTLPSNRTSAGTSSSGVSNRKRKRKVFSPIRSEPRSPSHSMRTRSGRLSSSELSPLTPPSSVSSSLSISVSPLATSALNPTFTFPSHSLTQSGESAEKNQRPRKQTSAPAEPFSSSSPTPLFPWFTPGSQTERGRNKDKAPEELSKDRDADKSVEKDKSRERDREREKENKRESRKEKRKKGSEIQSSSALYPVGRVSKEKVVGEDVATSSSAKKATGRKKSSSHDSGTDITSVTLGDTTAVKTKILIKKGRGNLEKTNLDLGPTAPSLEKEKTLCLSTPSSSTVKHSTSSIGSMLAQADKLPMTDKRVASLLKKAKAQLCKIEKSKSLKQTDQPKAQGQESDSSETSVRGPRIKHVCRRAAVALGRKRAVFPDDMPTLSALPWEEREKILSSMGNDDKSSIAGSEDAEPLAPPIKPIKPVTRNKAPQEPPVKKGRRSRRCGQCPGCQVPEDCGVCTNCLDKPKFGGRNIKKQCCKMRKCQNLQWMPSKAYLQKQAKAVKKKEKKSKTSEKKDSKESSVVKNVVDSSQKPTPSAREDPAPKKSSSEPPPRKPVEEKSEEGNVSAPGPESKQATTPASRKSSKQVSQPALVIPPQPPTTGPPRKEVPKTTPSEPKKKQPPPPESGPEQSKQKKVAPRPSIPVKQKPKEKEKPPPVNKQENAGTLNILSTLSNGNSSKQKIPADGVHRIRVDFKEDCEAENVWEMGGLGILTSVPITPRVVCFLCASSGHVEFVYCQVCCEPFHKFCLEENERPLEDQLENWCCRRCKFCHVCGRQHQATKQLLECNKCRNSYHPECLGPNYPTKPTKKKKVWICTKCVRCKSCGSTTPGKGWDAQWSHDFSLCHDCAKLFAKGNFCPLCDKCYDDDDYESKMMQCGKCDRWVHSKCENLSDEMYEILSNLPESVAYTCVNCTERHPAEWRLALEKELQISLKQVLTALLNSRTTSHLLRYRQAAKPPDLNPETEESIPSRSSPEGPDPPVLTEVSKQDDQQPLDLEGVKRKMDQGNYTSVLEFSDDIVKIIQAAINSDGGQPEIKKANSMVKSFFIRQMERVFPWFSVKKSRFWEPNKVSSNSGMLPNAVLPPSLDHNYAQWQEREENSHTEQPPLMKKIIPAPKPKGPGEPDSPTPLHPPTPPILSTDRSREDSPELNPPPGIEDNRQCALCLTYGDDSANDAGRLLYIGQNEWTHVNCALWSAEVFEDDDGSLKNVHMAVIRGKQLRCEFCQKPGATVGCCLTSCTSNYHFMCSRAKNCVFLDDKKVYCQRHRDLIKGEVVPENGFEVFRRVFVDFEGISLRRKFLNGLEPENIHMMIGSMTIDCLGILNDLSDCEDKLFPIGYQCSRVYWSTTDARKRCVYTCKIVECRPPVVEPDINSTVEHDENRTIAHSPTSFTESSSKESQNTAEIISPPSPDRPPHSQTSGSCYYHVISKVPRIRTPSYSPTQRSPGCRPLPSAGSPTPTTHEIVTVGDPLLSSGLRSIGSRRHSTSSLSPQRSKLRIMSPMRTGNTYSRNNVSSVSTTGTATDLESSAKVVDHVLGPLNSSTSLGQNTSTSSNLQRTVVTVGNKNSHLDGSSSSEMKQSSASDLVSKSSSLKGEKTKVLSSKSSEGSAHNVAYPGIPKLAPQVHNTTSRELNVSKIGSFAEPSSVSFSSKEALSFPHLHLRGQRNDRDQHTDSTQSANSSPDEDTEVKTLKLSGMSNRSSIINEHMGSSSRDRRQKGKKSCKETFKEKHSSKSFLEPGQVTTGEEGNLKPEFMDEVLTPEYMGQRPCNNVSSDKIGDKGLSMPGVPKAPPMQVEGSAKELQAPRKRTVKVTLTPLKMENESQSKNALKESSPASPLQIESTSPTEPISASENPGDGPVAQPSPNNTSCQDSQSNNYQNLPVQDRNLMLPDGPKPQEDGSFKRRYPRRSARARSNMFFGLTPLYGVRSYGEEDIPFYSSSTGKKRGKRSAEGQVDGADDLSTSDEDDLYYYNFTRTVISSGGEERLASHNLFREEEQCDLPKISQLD", "sequence (Q03164 2719-3969 partner limits assumed)": "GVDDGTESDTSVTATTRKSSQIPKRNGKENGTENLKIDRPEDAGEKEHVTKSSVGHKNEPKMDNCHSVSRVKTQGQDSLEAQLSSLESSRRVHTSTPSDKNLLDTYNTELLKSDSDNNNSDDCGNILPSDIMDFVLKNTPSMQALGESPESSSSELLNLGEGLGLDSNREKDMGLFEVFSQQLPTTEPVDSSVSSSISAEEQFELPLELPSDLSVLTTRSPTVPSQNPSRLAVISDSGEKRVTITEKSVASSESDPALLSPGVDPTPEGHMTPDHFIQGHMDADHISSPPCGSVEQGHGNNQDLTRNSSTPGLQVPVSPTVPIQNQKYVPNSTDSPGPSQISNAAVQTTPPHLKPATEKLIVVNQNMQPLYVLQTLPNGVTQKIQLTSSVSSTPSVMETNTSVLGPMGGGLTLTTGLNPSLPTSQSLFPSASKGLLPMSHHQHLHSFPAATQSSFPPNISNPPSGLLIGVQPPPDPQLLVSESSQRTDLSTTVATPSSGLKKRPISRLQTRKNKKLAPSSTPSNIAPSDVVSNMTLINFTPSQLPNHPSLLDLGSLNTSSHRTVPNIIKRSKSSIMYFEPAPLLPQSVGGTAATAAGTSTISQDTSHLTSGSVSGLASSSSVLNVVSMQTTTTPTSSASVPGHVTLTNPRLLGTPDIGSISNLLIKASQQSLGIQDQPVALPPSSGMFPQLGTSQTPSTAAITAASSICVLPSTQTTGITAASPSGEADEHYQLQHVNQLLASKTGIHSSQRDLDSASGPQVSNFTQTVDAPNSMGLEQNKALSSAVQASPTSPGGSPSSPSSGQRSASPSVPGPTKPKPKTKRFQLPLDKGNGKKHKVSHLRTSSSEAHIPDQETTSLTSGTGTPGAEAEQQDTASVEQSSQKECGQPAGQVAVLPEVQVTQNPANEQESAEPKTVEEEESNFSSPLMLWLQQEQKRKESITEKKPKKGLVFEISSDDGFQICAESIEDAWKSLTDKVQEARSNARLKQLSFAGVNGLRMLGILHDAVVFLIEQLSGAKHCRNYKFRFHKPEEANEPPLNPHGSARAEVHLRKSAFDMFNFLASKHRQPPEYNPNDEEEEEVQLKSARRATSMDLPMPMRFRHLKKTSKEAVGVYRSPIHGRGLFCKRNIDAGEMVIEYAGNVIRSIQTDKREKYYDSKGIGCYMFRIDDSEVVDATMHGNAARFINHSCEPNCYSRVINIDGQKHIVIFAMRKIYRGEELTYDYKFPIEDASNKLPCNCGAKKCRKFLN", "experiment": "Inhibition of menin (unknown origin)/N-terminal FITC-labeled MLL1 peptide (unknown origin) interaction incubated for 30 min by fluorescence polarization assay", "assay_type": "protein assay"}, "MV4-11 [2]": {"system": "MV4-11", "experiment": "Antiproliferative activity against human menin-sensitive MV4-11 cells assessed as inhibition of cell growth incubated for 7 days by MTS assay", "assay_type": "functional, cell-based", "conditions": "MV4-11, 168 h"}, "REH [3]": {"system": "REH", "experiment": "Antiproliferative activity against human menin-insensitive REH cells assessed as inhibition of cell growth incubated for 7 days by MTS assay", "assay_type": "functional, cell-based", "conditions": "168 h"}, "[4]": {"experiment": "Tmax in female ICR mouse at 5 mg/kg, ip by LC-MS/MS analysis", "assay_type": "ADME, organism-based", "conditions": "in vivo"}, "[5]": {"experiment": "Cmax in female ICR mouse at 5 mg/kg, ip by LC-MS/MS analysis", "assay_type": "ADME, organism-based", "conditions": "in vivo"}, "[6]": {"experiment": "AUClast in female ICR mouse at 5 mg/kg, ip by LC-MS/MS analysis", "assay_type": "ADME, organism-based", "conditions": "in vivo"}, "[7]": {"experiment": "Observed AUCinfinity in female ICR mouse at 5 mg/kg, ip by LC-MS/MS analysis", "assay_type": "ADME, organism-based", "conditions": "in vivo"}, "[8]": {"experiment": "Observed MRTinfinity in female ICR mouse at 5 mg/kg, ip by LC-MS/MS analysis", "assay_type": "ADME, organism-based", "conditions": "in vivo"}, "[9]": {"experiment": "Half life in female ICR mouse at 5 mg/kg, ip by LC-MS/MS analysis", "assay_type": "ADME, organism-based", "conditions": "in vivo"}, "MV4-11 [10]": {"system": "MV4-11", "experiment": "Antiproliferative activity against human MV4-11 cells harboring MLL-AF4 assessed as cell growth inhibition incubated for 7 days by MTS assay", "assay_type": "functional, cell-based", "conditions": "MV4-11, 168 h"}, "MOLM-14": {"system": "MOLM-14", "experiment": "Antiproliferative activity against human MOLM-14 cells harboring MLL-AF9 assessed as cell growth inhibition incubated for 7 days by MTS assay", "assay_type": "functional, cell-based", "conditions": "MOLM-14, 168 h"}, "RS4-11": {"system": "RS4-11", "experiment": "Antiproliferative activity against human RS4;11 cells harboring MLL-AF4 assessed as cell growth inhibition incubated for 7 days by MTS assay", "assay_type": "functional, cell-based", "conditions": "RS4-11, 168 h"}, "MOLM-13": {"system": "MOLM-13", "experiment": "Antiproliferative activity against human MOLM-13 cells harboring MLL-AF9 assessed as cell growth inhibition incubated for 7 days by MTS assay", "assay_type": "functional, cell-based", "conditions": "MOLM-13, 168 h"}, "REH [11]": {"system": "REH", "experiment": "Antiproliferative activity against human REH cells assessed as cell growth inhibition incubated for 7 days by MTS assay", "assay_type": "functional, cell-based", "conditions": "168 h"}, "HL-60": {"system": "HL-60", "experiment": "Antiproliferative activity against human HL-60 cells assessed as cell growth inhibition incubated for 7 days by MTS assay", "assay_type": "functional, cell-based", "conditions": "HL-60, 168 h"}, "[12]": {"experiment": "Antiproliferative activity against human MINO cells assessed as cell growth inhibition incubated for 7 days by MTS assay", "assay_type": "functional, cell-based", "conditions": "168 h"}, "MV4-11 [13]": {"system": "MV4-11", "experiment": "Downregulation of MEIS1 expression level in human MV4-11 cells at 10 uM incubated for 48 hrs by qRT-PCR analysis", "assay_type": "functional, cell-based"}, "MV4-11 [14]": {"system": "MV4-11", "experiment": "Downregulation of HOXA9 expression level in human MV4-11 cells at 10 uM incubated for 48 hrs by qRT-PCR analysis", "assay_type": "functional, cell-based"}, "MV4-11 [15]": {"system": "MV4-11", "experiment": "Inhibition of menin protein expression in human MV-4-11 cells measured after 48 hrs incubation by Western blot analysis", "assay_type": "functional, cell-based", "conditions": "dose 1-37 µM"}, "REH [16]": {"system": "REH", "experiment": "Downregulation of HOXA9 expression level in human REH cells at 10 uM incubated for 48 hrs by qRT-PCR analysis", "assay_type": "functional, cell-based"}, "REH [17]": {"system": "REH", "experiment": "Downregulation of MEIS1 expression level in human REH cells at 10 uM incubated for 48 hrs by qRT-PCR analysis", "assay_type": "functional, cell-based"}, "[18]": {"system": "Acute myeloid leukemic cell", "experiment": "Induction of cell differentiation in human acute myeloid leukemia patient-derived cells assessed as increase in CD11b at 150 nM incubated for 7 days by cytoFLEX flow cytometric analysis", "assay_type": "functional, cell-based", "conditions": "time 7.0 day"}, "MV4-11 [19]": {"system": "MV4-11", "experiment": "Antiproliferative activity against human MV4-11 cells assessed as reduction in cell viability incubated for 7 days and measured after compound washout", "assay_type": "functional, cell-based", "conditions": "time 7.0 day"}, "MV4-11 [20]": {"system": "MV4-11", "experiment": "Antiproliferative activity against human MV4-11 cells assessed as reduction in cell viability preincubated for 7 days and followed by compound washout and measured on day 14 after compound readdition", "assay_type": "functional, cell-based", "conditions": "time 21.0 day"}, "MV4-11 [21]": {"system": "MV4-11", "experiment": "Antiproliferative activity against human MV4-11 cells assessed as reduction in cell viability at 100 nM preincubated for 7 days and followed by compound washout and measured on day 14 after compound readdition", "assay_type": "functional, cell-based", "conditions": "time 21.0 day"}, "MV4-11 [22]": {"system": "MV4-11", "experiment": "Antiproliferative activity against human MV4-11 cells assessed as reduction in cell viability at 50 nM incubated for 7 days and measured after compound washout relative to control", "assay_type": "functional", "conditions": "time 7 day"}, "MV4-11 [23]": {"system": "MV4-11", "experiment": "Antiproliferative activity against human MV4-11 cells assessed as reduction in cell viability at 80 nM preincubated for 7 days and followed by compound washout and measured on day 14 after compound readdition relative to control", "assay_type": "functional", "conditions": "time 21 day"}, "[24]": {"experiment": "Solubility of compound in water by HPLC analysis", "assay_type": "physicochemical"}, "MV4-11 [25]": {"system": "MV4-11", "experiment": "Antitumor activity against human MV4-11 cells xenografted in ip treated nu/nu mouse model assessed as tumor growth inhibition measured upto 15 days", "assay_type": "functional, organism-based", "conditions": "dose 10-20 mg/kg, time <= 15.0 day"}, "MV4-11 [26]": {"system": "MV4-11", "experiment": "Antitumor activity against human MV4-11 cells xenografted in nu/nu mouse model assessed as tumor growth rate at 10 mg/kg, ip bid for 15 days measured twice a week during compound dosing by caliper method relative to control", "assay_type": "functional", "conditions": "time 15 day"}, "MV4-11 [27]": {"system": "MV4-11", "experiment": "Antitumor activity against human MV4-11 cells xenografted in nu/nu mouse model assessed as tumor growth rate at 20 mg/kg, ip bid for 15 days measured twice a week during compound dosing by caliper method relative to control", "assay_type": "functional", "conditions": "time 15 day"}, "[28]": {"experiment": "Toxicity in nu/nu mouse model assessed as body weight loss at 10 to 20 mg/kg, ip bid for 15 days measured twice a week during compound dosing", "assay_type": "organism-based", "conditions": "in vivo, 360 h, dose 10-20 mg/kg, time 15 day"}, "[29]": {"experiment": "Cytotoxicity against human PBMC cells assessed as cell viability incubated for 7 days by MTS assay", "assay_type": "toxicity, cell-based"}, "MV4-11 [30]": {"system": "MV4-11", "experiment": "Suppression of MEN1 gene transcription in human MV4-11 cells incubated for 48 hrs by relative gene expression assay", "assay_type": "functional, cell-based"}, "[31]": {"experiment": "Suppression of MEN1 gene transcription in human MV4-11 cells assessed as protein synthesis by measuring fold change at 10 uM incubated for 48 hrs relative to control", "assay_type": "functional"}, "[32]": {"experiment": "Suppression of MEN1 gene transcription in human MV4-11 cells assessed as protein synthesis by measuring fold change at 10 uM incubated for 48 hrs in presence of 20 nM carfilzomib relative to control", "assay_type": "functional"}, "[33]": {"experiment": "Suppression of MEN1 gene transcription in human MV4-11 cells assessed as protein synthesis by measuring fold change at 10 uM incubated for 12 hrs in presence of 50 ug/ml cycloheximide relative to control", "assay_type": "functional"}, "[34]": {"experiment": "Suppression of MEN1 gene transcription in human MV4-11 cells assessed as protein synthesis by measuring fold change at 10 uM incubated for 24 hrs in presence of 50 ug/ml cycloheximide relative to control", "assay_type": "functional"}, "[35]": {"experiment": "Suppression of MEN1 gene transcription in human MV4-11 cells assessed as protein synthesis by measuring fold change at 10 uM incubated for 36 hrs in presence of 50 ug/ml cycloheximide relative to control", "assay_type": "functional"}, "[36]": {"experiment": "Suppression of MEN1 gene transcription in human MV4-11 cells assessed as protein synthesis by measuring fold change at 10 uM incubated for 48 hrs in presence of 50 ug/ml cycloheximide relative to control", "assay_type": "functional"}}, "note": "Active and inactive are the calls of the source. The calls are words filed in the database; no cut-off is given here."}
{"compound": "CCN(C(=O)c1cc(F)ccc1Nc1cncnc1N1CCN(CC2CN(c3ccc(S(=O)(=O)C4CN(C(=O)/C=C/CN(C)C)C4)cc3)C2)C(C)C1)C(C)C", "note": "(stereo not given)", "values": [{"measurement": "IC50", "setting": "[1]", "result": 18.2, "unit": "nM"}, {"measurement": "IC50", "setting": "MV4-11 [2]", "result": 30, "unit": "nM"}, {"measurement": "IC50", "setting": "REH [3]", "result": 8400, "unit": "nM"}, {"measurement": "Tmax", "setting": "[4]", "result": 0.25, "unit": "h"}, {"measurement": "Cmax", "setting": "[5]", "result": 980, "unit": "ng/mL"}, {"measurement": "AUC(0-t)", "setting": "[6]", "result": 1150, "unit": "ng·h/mL"}, {"measurement": "AUC(0-inf)", "setting": "[7]", "result": 1230, "unit": "ng·h/mL"}, {"measurement": "MRT inf", "setting": "[8]", "result": 1.85, "unit": "h"}, {"measurement": "half-life", "setting": "[9]", "result": 1.59, "unit": "h"}, {"measurement": "IC50", "setting": "MV4-11 [10]", "result": 49, "unit": "nM"}, {"measurement": "IC50", "setting": "MOLM-14", "result": 103, "unit": "nM"}, {"measurement": "IC50", "setting": "RS4-11", "result": 272, "unit": "nM"}, {"measurement": "IC50", "setting": "MOLM-13", "result": 221, "unit": "nM"}, {"measurement": "IC50", "setting": "REH [11]", "result": "> 3000", "unit": "nM"}, {"measurement": "IC50", "setting": "HL-60", "result": "> 3000", "unit": "nM"}, {"measurement": "IC50", "setting": "[12]", "result": "> 3000", "unit": "nM"}, {"measurement": "Activity", "setting": "MV4-11 [13]", "result": "Active"}, {"measurement": "Activity", "setting": "MV4-11 [14]", "result": "Active"}, {"measurement": "Activity", "setting": "MV4-11 [15]", "result": "Dose-dependent-effect; Significantly Greater Inhibition At 10 Um Than That Of Sndx-5613"}, {"measurement": "Activity", "setting": "REH [16]", "result": "Active; Little Impact Observed"}, {"measurement": "Activity", "setting": "REH [17]", "result": "Active; Little Impact Observed"}, {"measurement": "Activity", "setting": "[18]", "result": "Active"}, {"measurement": "Activity", "setting": "MV4-11 [19]", "result": "inactive"}, {"measurement": "Activity", "setting": "MV4-11 [20]", "result": "Dose-dependent-effect"}, {"measurement": "Activity", "setting": "MV4-11 [21]", "result": "Active"}, {"measurement": "Activity", "setting": "MV4-11 [22]", "result": 100, "unit": "%"}, {"measurement": "Activity", "setting": "MV4-11 [23]", "result": 100, "unit": "%"}, {"measurement": "solubility", "setting": "[24]", "result": 1230, "unit": "µg/mL"}, {"measurement": "Activity", "setting": "MV4-11 [25]", "result": "Dose-dependent-effect"}, {"measurement": "Activity", "setting": "MV4-11 [26]", "result": 55.64, "unit": "%"}, {"measurement": "Activity", "setting": "MV4-11 [27]", "result": 35.85, "unit": "%"}, {"measurement": "Activity", "setting": "[28]", "result": "Non-toxic"}, {"measurement": "IC50 at 7 days", "setting": "[29]", "result": "> 3000", "unit": "nM"}, {"measurement": "Activity", "setting": "MV4-11 [30]", "result": "Active"}, {"measurement": "fold change (FC)", "setting": "[31]", "result": 0.08}, {"measurement": "fold change (FC)", "setting": "[32]", "result": 0.14}, {"measurement": "fold change (FC)", "setting": "[33]", "result": 0.69}, {"measurement": "fold change (FC)", "setting": "[34]", "result": 0.31}, {"measurement": "fold change (FC)", "setting": "[35]", "result": 0.21}, {"measurement": "fold change (FC)", "setting": "[36]", "result": 0.25}]}
